Measurements from US11707442B2, “Antibacterial and antifungal compounds” (The General Hospital Corporation, priority 2015, dated 2023).

Key:
S. aureus = experiment: Disc clearing assay; format: cell-based, Staphylococcus aureus; details: result in words
Experimental: Disc clearing assay: The disc diffusion test was performed on Mueller Hinton (MH) agar plates for bacterial cultures and yeast extract, peptone, dextrose (YPD) for fungal cultures. The assay was repeated 3 times. Discs were soaked in 10 μl of either DMSO or 10 mg/ml compound stock solution and air-dried. Three hundred microliters of an overnight culture of bacteria or fungi were spread on plates. After completely drying the agar plate in a laminar flow hood, DMSO or compound impregnated discs were overlaid on the plate and incubated at 35° C. for 18 hrs.
The disc diffusion test was carried out in triplicate on cation-adjusted Miller-Hinton agar. 6 mm discs were impregnated with 50 μg of compounds and air-dried. Three hundred microliters of an overnight S. aureus MW2 culture was spread on an agar plate and air-dried. The antimicrobial discs were overlaid on the plate and incubated at 37° C. for 20 hrs.

[1] = system: S. aureus MW2 (MRSA) in neutropenic mouse thigh; format: in vivo
Experimental: Deep-seated mouse thigh infection model for evaluating drug efficacy. A previously described protocol to mimic a chronic, deep-tissue infection was used with modifications (See, e.g., Conlon, B. P. et al. Activated ClpP kills persisters and eradicates a chronic biofilm infection. Nature 503, 365-370 (2013)). Six-week-old female CD1 ICR outbred mice (20-25 g) were obtained from Charles River Laboratories. To make mice neutropenic, 150 mg/kg and 100 mg/kg of cyclophosphamide were administered intraperitoneally (i.p.) at 4 days and 1 day before infection, respectively. On the day of infection, ˜10^7 cells of stationary-phase S. aureus MW2 resuspended in 50 μl saline were injected to the right thigh of each mouse. […] Control mice were injected with 200 μl of 10% Kolliphor EL/ethanol in saline i.p. every 12 h for 3 days. After euthanizing mice at 96 h post-infection, blood was collected by cardiac puncture and the infected thighs were aseptically excised. All samples were stored at 4° C. until use. Serum was analyzed for alanine aminotransferase and urea nitrogen content with commercially available kits, following the manufacturer's protocol (Pointe Scientific, Canton, Mich., USA). Thighs were homogenized in PBS and the number of MRSA in homogenates was enumerated by serial dilution and spot-plating on TSA plates, and bacterial load was recorded as CFU/g thigh tissue. […] Statistical significance among each group was analyzed by one-way ANOVA with post-hoc Tukey test using PASW Statistics 18 (SPSS Inc. Chicago, Ill., USA).
At 12 h after the last treatment, mice were euthanized and their thighs were excised and homogenized. […] Statistical differences between control and antibiotic treatment groups were analyzed by one-way ANOVA and post-hoc Tukey test (***p<0.001).
At 12 h after the last treatment, mice were euthanized, blood was collected and analyzed for ALT and BUN. […] Control and antibiotic treatment were analyzed by one-way ANOVA and post-hoc Tukey test to confirm a lack of significant difference

O=C(O)c1ccc2cc(-c3ccc(O)c(C45CC6CC(CC(C6)C4)C5)c3)ccc2c1 [CD437, 6-(4-hydroxy-3-tricyclo[3.3.1.13,7]dec-1-ylphenyl)-2-naphthalenecarboxylic acid]
zone of inhibition, S. aureus (S. aureus): inhibits the growth
MRSA cells killed in thigh ([1]; CD437 20 mg/kg i.p. alone, every 12 h for 3 days): ~90%
persisters killed in thigh, combination ([1]; CD437 20 mg/kg i.p. plus gentamicin 30 mg/kg s.c., every 12 h for 3 days): ~99%
serum levels of ALT or BUN ([1]; mouse, in vivo, ip, 20 mg/kg): did not have elevated serum levels
